Data: patent US20230087994A1, “TARGETED BIFUNCTIONAL DEGRADERS” (YALE UNIVERSITY, priority 2019, published 2023)

Legend:
human MIF = molecular target: T1, human MIF (Homo sapiens, UniProt P14174); assay: Depletion of injected recombinant human MIF from serum in mice; type: in vivo; design: injected into mice; details: control molecules; FIG. 136
T1 sequence (P14174 2-115 limits assumed): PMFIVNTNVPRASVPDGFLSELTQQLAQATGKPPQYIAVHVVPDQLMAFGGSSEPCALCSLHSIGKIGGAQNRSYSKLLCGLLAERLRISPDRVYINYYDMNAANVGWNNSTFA
Method: In vivo human MIF depletion experiments were undertaken to determine whether MIF-GN3 can mediate the depletion of injected recombinant human MIF from serum in mice. Mice were injected with five μg of the human MIF protein. In this experiment, one group of mice was also injected with a single 10 mpk dose of MIF-GN3 along with human MIF protein. It was observed that after four hours, the average level of human MIF in serum in the PBS-treated mice was 1.76 ng/mL (FIG. 134). In mice treated with 10 mpk MIF-GN3, however, the concentration of human MIF in serum was 0.68 ng/mL. One day after the initial injection, human MIF levels had reached background levels for both conditions. […] It was hypothesized that, due to the short half-life of human MIF in serum, investigating human MIF levels at earlier time points may be more informative.
Next, an experiment was performed to determine whether MIF-GN3 could enhance MIF clearance at time points earlier than four hours. Mice were coinjected with recombinant human MIF and 10 mpk MIF-GN3 via either i.p. or i.v. routes. For the PBS control arms, human MIF was injected with PBS. It was observed that in the absence of MIF-GN3, there was a spike in huMIF levels in circulation after 30 minutes (FIG. 135). In the presence of MIF-GN3, however, levels of MIF protein remained low at 30 minutes and no spike in its concentration was observed. By two hours, the levels of human MIF in circulation decreased to background levels. […] In a further experiment, whether an inhibitor of the MIF protein (3w) is able to mediate the protein's depletion from serum was determined. A bifunctional molecule that mediates the depletion of α-DNP antibody from serum was also assayed as a negative control. Neither of these molecules was expected to mediate the formation of a ternary complex between human MIF protein and ASGPR.
In order to confirm that mice injected with one or ten mpk MIF-GN3 had received the injection, and that the observed stability of MIF concentrations in MIF-GN3 treated mice was not the result of injection error, 200 μg of α-DNP antibody was coinjected with the MIF protein in this experiment. […] An investigation of the ability of MIF-GN3 to mediate the depletion of endogenous mouse MIF in vivo was next undertaken. Mice were treated with either PBS or 10 mpk of MIF-GN3. […] One possible explanation for this finding is that MIF protein may be synthesized rapidly, and any increase in degradation mediated by MIF-GN3 may not be of a large enough magnitude to impact the protein's level in serum.

[1] = Pharmacokinetics of DNP-GN3 in nude mice; type: in vivo; details: 1 mpk
HepG2 cells [2] = assay: DNP-GN3-mediated endocytosis of fluorescently labeled α-DNP antibody by adherent HepG2 cells; type: cell-based, human
Method: It was next explored whether DNP-GN3 mediates the endocytosis of fluorescently labeled α-DNP antibody.
To explore the cellular mechanism of antibody uptake, cells were treated with chemical inhibitors of several endocytic pathways (FIG. 89).

HepG2 cells [3] = assay: Western blot of α-DNP antibody degradation in HepG2 cells treated with DNP-GN3; type: cell-based, human; details: anti-Alexa Fluor 488, FIG. 92A
Method: In addition, western blotting with an antibody directed to Alexa Fluor 488 was used to determine if endocytosed fluorescently labeled α-DNP antibodies are degraded in vitro. […] Signal arising from Alexa Fluor 488 in cell lysates was associated with only full-length antibody after two hours of incubation. After six hours, a lower molecular weight fluorophore-associated protein fragment between 37 and 50 kDa began to appear. An additional protein fragment with a molecular weight between 25 and 37 kDa was observed after 24 hours. […] Together with the above immunofluorescence studies showing the colocalization of α-DNP antibody-derived fluorescence with lysosomes, these studies support that α-DNP antibody degradation is mediated by lysosomal proteases. Lysosomal degradation is further consistent with a mechanism dependent on ASGPR.

SMILES: CC(=O)NC1C(OCCOCCOCCNC(=O)CCOCC(COCCC(=O)NCCOCCOCCOC2OC(CO)C(O)C(O)C2NC(C)=O)(COCCC(=O)NCCOCCOCCOC2OC(CO)C(O)C(O)C2NC(C)=O)NC(=O)CNC(=O)COCCOCCOCCNc2ccc([N+](=O)[O-])cc2[N+](=O)[O-])OC(CO)C(O)C1O (stereo not shown) [DNP-GN3]
- human MIF concentration in serum compared to the PBS control (human MIF): no significant decreases
- bioavailability via IP dosing [1]: bioavailable
- half-life in serum ([1]; IP): 40.2 min
- time at which maximal serum concentration is reached ([1]; IP): 1 h
- intracellular fluorescence of adherent HepG2 cells (HepG2 cells [2]; FIG. 87A): dependent on the concentration of both DNP-GN3 and α-DNP antibody
- uptake of α-DNP antibody (HepG2 cells [2]; target protein at 1 nM): not effective
- fluorophore accumulation in lysates of HepG2 cells (HepG2 cells [3]): accumulate fluorophore in a time- and DNP-GN3-dependent manner
